From ChEMBL document CHEMBL5352456, “Isocyanides in med chem: A scaffold hopping approach for the identification of novel 4-isocyanophenylamides as potent antibacterial agents against methicillin-resistant Staphylococcusaureus” (Eur J Med Chem, 2023)
Activity calls are given as the source filed them. The calls are words filed in the database; no cut-off is given here.

Tests used:
Staphylococcus aureus [1] = assay: Antibacterial activity against Staphylococcus aureus ATCC 25923 assessed as reduction in microbial growth measured for 16 to 20 hrs by microdilution assay; assay type: functional; settings: time 16-20 hrs
Staphylococcus aureus [2] = assay: Additive antibacterial activity against methicillin-resistant Staphylococcus aureus assessed as fractional inhibitory concentration index in presence of tetracycline by checker board method; assay type: functional
Staphylococcus aureus [3] = assay: Additive antibacterial activity against methicillin-resistant Staphylococcus aureus assessed as fractional inhibitory concentration index in presence of ciprofloxacin by checker board method; assay type: functional
Staphylococcus aureus [4] = assay: Anti-biofilm activity in Staphylococcus aureus ATCC 6538 assessed as inhibition of biofilm formation upto 128 uM measured for 24 hrs by MTT assay; assay type: functional, organism-based
Staphylococcus aureus [5] = assay: Antibacterial activity against methicillin-resistant Staphylococcus aureus ATCC 43300 assessed as reduction in microbial growth measured for 16 to 20 hrs by microdilution assay; assay type: functional; settings: time 16-20 hrs
HaCaT = assay: Cytotoxicity against human HaCaT cells assessed as reduction in cell viability measured at 64 to 128 uM measured for 24 hrs by MTT assay; assay type: toxicity, cell-based; settings: dose 64-128 µM
[6] = Metabolic stability in human plasma assessed as parent compound remaining at 50 uM incubated for 60 mins by LC-UV analysis; assay type: ADME, cell-free; settings: read-out: Stability
Pseudomonas aeruginosa = assay: Antibacterial activity against Pseudomonas aeruginosa ATCC 10145 assessed as inhibition of bacterial growth measured for 16 to 20 hrs by microdilution assay; assay type: functional; settings: time 16-20 hrs
Staphylococcus aureus [7] = assay: Antibacterial activity against methicillin-resistant Staphylococcus aureus ATCC 43300 assessed as reduction in microbial growth by microdilution assay; assay type: functional
Staphylococcus aureus [8] = assay: Resistance development in methicillin-resistant Staphylococcus aureus ATCC 43300 assessed as fold increase in MIC after 10 passage; assay type: functional
[9] = tested on: Staphylococcus epidermidis; assay: Antibacterial activity against Staphylococcus epidermidis ATCC 12228 assessed as reduction in microbial growth measured for 16 to 20 hrs by microdilution assay; assay type: functional; settings: time 16-20 hrs
Klebsiella pneumoniae = assay: Antibacterial activity against Klebsiella pneumoniae ATCC 700603 assessed as inhibition of bacterial growth measured for 16 to 20 hrs by microdilution assay; assay type: functional; settings: time 16-20 hrs
Staphylococcus aureus [10] = assay: Antibacterial activity against Staphylococcus aureus ATCC 6538 assessed as reduction in microbial growth measured for 16 to 20 hrs by microdilution assay; assay type: functional; settings: time 16-20 hrs
Staphylococcus aureus [11] = assay: Induction of cell membrane permeability in Staphylococcus aureus ATCC 6538; assay type: functional, organism-based
Staphylococcus aureus [12] = assay: Anti-biofilm activity in Staphylococcus aureus ATCC 6538 assessed as inhibition of biofilm formation at 128 uM measured for 24 hrs by MTT assay; assay type: functional; set-up: scale not given: the % may be the effect or the level left
Staphylococcus aureus [13] = assay: Antibacterial activity against methicillin-resistant Staphylococcus aureus ATCC 33592 assessed as reduction in microbial growth measured for 16 to 20 hrs by microdilution assay; assay type: functional; settings: time 16-20 hrs
Escherichia coli = assay: Antibacterial activity against Escherichia coli ATCC 25922 assessed as inhibition of bacterial growth measured for 16 to 20 hrs by microdilution assay; assay type: functional; settings: time 16-20 hrs
[14] = Metabolic stability in human liver microsome assessed as intrinsic clearance at 5 uM incubated for 1 hr in presence of NADPH regenerating system and GSH by LC-UV analysis; assay type: ADME; settings: liver microsomes, read-out: CLH
Osteoblast [15] = assay: Cytotoxicity against human Osteoblast cells assessed as reduction in cell viability measured at 64 to 128 uM measured for 24 hrs by MTT assay; assay type: toxicity, cell-based; settings: dose 64-128 µM
Staphylococcus aureus [16] = assay: Anti-biofilm activity in Staphylococcus aureus ATCC 6538 assessed as inhibition of biofilm formation at 16 uM measured for 24 hrs by MTT assay; assay type: functional; set-up: scale not given: the % may be the effect or the level left
Osteoblast [17] = assay: Cytotoxicity against human Osteoblast cells assessed as reduction in cell viability measured at 128 uM measured for 24 hrs by MTT assay; assay type: toxicity, cell-based
[18] = tested on: Staphylococcus epidermidis; assay: Antibacterial activity against Staphylococcus epidermidis ATCC 35984 assessed as reduction in microbial growth measured for 16 to 20 hrs by microdilution assay; assay type: functional; settings: time 16-20 hrs
[19] = tested on: Staphylococcus epidermidis; assay: Antibacterial activity against Staphylococcus epidermidis ATCC 49134 assessed as reduction in microbial growth measured for 16 to 20 hrs by microdilution assay; assay type: functional; settings: time 16-20 hrs
[20] = Metabolic stability in human liver microsome assessed as half life at 5 uM incubated for 1 hr in presence of NADPH regenerating system and GSH by LC-UV analysis; assay type: ADME; settings: liver microsomes
Staphylococcus aureus [21] = assay: Bactericidal activity against methicillin-resistant Staphylococcus aureus ATCC 43300 measured for 24 hrs by time kill assay; assay type: functional, organism-based
Staphylococcus aureus [22] = assay: Antibacterial activity against Staphylococcus aureus ATCC 6538 assessed as reduction in cell surface hydrophobicity; assay type: functional, organism-based
[23] = Metabolic stability in human liver microsome assessed as parent compound remaining at 50 uM incubated for 1 hr in presence of NADPH regenerating system and GSH by LC-UV analysis; assay type: ADME; settings: liver microsomes, read-out: Stability
Staphylococcus aureus [24] = assay: Bactericidal activity against methicillin-resistant Staphylococcus aureus ATCC 43300 incubated for 24 hrs by time kill assay; assay type: functional
Staphylococcus aureus [25] = assay: Antibacterial activity against Staphylococcus aureus ATCC 29213 assessed as reduction in microbial growth measured for 16 to 20 hrs by microdilution assay; assay type: functional; settings: time 16-20 hrs
[26] = Metabolic stability in rat liver microsome assessed as parent compound remaining at 50 uM incubated for 1 hr in presence of NADPH regenerating system and GSH by LC-UV analysis; assay type: ADME; settings: liver microsomes, read-out: Stability

For `[C-]#[N+]c1ccc(NC(=O)Cc2cccc(Cl)c2)cc1`, the MIC (Staphylococcus aureus [1]) was 2 µM, the “fractional inhibitory concentration index (FICI)” value (Staphylococcus aureus [2]) was 0.75 and the “fractional inhibitory concentration index (FICI)” value (Staphylococcus aureus [3]) was 0.75. For the same compound, the Activity (Staphylococcus aureus [4]) was “inactive”, the MIC (Staphylococcus aureus [5]) was 4 µM and the Activity (HaCaT) was “Non-Toxic”. The remaining at 1 h, 50 µM [6] was greater than 99%, the MIC (Pseudomonas aeruginosa) was no less than 64 µM and the MIC (Staphylococcus aureus [7]) was 4 µM. For the same compound, the “fold change (FC)” value (Staphylococcus aureus [8]) was greater than 4, the MIC [9] was 0.5 µM and the MIC (Klebsiella pneumoniae) was no less than 64 µM. For the same compound, the MIC (Staphylococcus aureus [10]) was 8 µM, the Activity (Staphylococcus aureus [11]) was “Active” and the Activity (Staphylococcus aureus [12]) was 94%. For the same compound, the MIC (Staphylococcus aureus [13]) was 4 µM, the MIC (Escherichia coli) was no less than 64 µM and the microsomal CLint at 5 µM [14] was 24.4 µL/min/mg. For the same compound, the Activity (Osteoblast [15]) was “Non-Toxic”, the Activity (Staphylococcus aureus [16]) was 10% and the Activity (Osteoblast [17]) was greater than 70%. The MIC [18] was 0.25 µM, the MIC [19] was 0.25 µM and the half-life at 5 µM [20] was 26.2 min. For the same compound, the Activity (Staphylococcus aureus [21]) was “Active”, the Activity (Staphylococcus aureus [22]) was “inactive” and the remaining at 1 h, 50 µM [23] was 82%. The Activity (Staphylococcus aureus [24]) was “>=99.9%”, the MIC (Staphylococcus aureus [25]) was 8 µM and the remaining at 1 h, 50 µM [26] was 53%.
